Where “and” joins values, the source holds several entries; their conditions need not be identical. Equal values may be shown once.
System: 521955-158-R2-J5-PDC complex spheroid viability
Experiment: Anticancer human tumor 521955-158-R2-J5-PDC patient-derived pancreatic carcinoma cell line growth inhibition
Conditions: for viability, T/C: stronger effect = lower value
Method in brief: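 Multicellular complex spheroids of tumor cells with human endothelial cells (HUVEC) and mesenchymal stem cells; the LSD1 inhibitor iadademstat was combined with standard-of-care or investigational agents. Top concentration at or near clinical Cmax, half-log dilutions; final DMSO ≤0.25%.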

[1] = curve of first compound, second compound 0.1 µM
[2] = curve of first compound, second compound 0.316 µM
[3] = curve of first compound, second compound 1 µM
[4] = curve of first compound, second compound 3.16 µM
[5] = curve of first compound, second compound 10 µM
[6] = second compound 0.1 µM, first compound 0.00316 µM
[7] = second compound 0.1 µM, first compound 0.01 µM
[8] = second compound 0.1 µM, first compound 0.0316 µM
[9] = second compound 0.1 µM, first compound 0.1 µM
[10] = second compound 0.316 µM, first compound 0.00316 µM
[11] = second compound 0.316 µM, first compound 0.01 µM
[12] = second compound 0.316 µM, first compound 0.0316 µM
[13] = second compound 0.316 µM, first compound 0.1 µM
[14] = second compound 1 µM, first compound 0.00316 µM
[15] = second compound 1 µM, first compound 0.01 µM
[16] = second compound 1 µM, first compound 0.0316 µM
[17] = second compound 1 µM, first compound 0.1 µM
[18] = second compound 3.16 µM, first compound 0.00316 µM
[19] = second compound 3.16 µM, first compound 0.01 µM
[20] = second compound 3.16 µM, first compound 0.0316 µM
[21] = second compound 3.16 µM, first compound 0.1 µM
[22] = second compound 10 µM, first compound 0.00316 µM
[23] = second compound 10 µM, first compound 0.01 µM
[24] = second compound 10 µM, first compound 0.0316 µM
[25] = second compound 10 µM, first compound 0.1 µM
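Note: spheroids exposed to agents for seven days.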
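Throughout, for viability, T/C: percent of DMSO vehicle control luminescence viability.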

CC1COCCN1c1cc(-c2ccnn2C)c2ccnc(-c3ccn[nH]3)c2n1 (configuration not stated) + NC1CC1c1ccc(-c2cccc(O)c2)cc1
IC50 [1]: < 3.16 nM
IC50 [2]: < 3.16 nM
IC50 [3]: < 3.16 nM
IC50 [4]: < 3.16 nM
IC50 [5]: < 3.16 nM
viability, T/C [6]: 15.7%
viability, T/C [7]: 16.1%
viability, T/C [8]: 17.3%
viability, T/C [9]: 25.2%
viability, T/C (second compound 0.1 µM, first compound 0.316 µM): 29.5%
viability, T/C (second compound 0.1 µM, first compound 1 µM): 10.9%
viability, T/C [10]: 23.3%
viability, T/C [11]: 16.2%
viability, T/C [12]: 17.9%
viability, T/C [13]: 26.1%
viability, T/C (second compound 0.316 µM, first compound 0.316 µM): 28.5%
viability, T/C (second compound 0.316 µM, first compound 1 µM): 10.6%
viability, T/C [14]: 22.9%
viability, T/C [15]: 19.6%
viability, T/C [16]: 18.9%
viability, T/C [17]: 25.4%
viability, T/C (second compound 1 µM, first compound 0.316 µM): 26.6%
viability, T/C (second compound 1 µM, first compound 1 µM): 10.6%
viability, T/C [18]: 22.8%
viability, T/C [19]: 19.7%
viability, T/C [20]: 21.1%
viability, T/C [21]: 24.9%
viability, T/C (second compound 3.16 µM, first compound 0.316 µM): 26.1%
viability, T/C (second compound 3.16 µM, first compound 1 µM): 9.32%
viability, T/C [22]: 26.7%
viability, T/C [23]: 22.6%
viability, T/C [24]: 22.5%
viability, T/C [25]: 26.9%
viability, T/C (second compound 10 µM, first compound 0.316 µM): 22.4%
viability, T/C (second compound 10 µM, first compound 1 µM): 9.48%

CC(C)CC(NC(=O)C(Cc1ccccc1)NC(=O)c1cnccn1)B(O)O (configuration not stated)
viability, T/C (compound 0.000316 µM): 79.9% and 91.8%
viability, T/C (compound 0.001 µM): 0.42% and 0.86%
viability, T/C (compound 0.00316 µM): 0.29% and 0.43%
viability, T/C (compound 0.01 µM): 0.18% and 0.38%
viability, T/C (compound 0.0316 µM): 0.31% and 0.4%
viability, T/C (compound 0.1 µM): 0.21% and 0.45%
IC50 (curve of compound): 0.488 nM and 0.537 nM

CC(C)CC(NC(=O)CNC(=O)c1cc(Cl)ccc1Cl)B1OC(=O)CC(CC(=O)O)(C(=O)O)O1 (configuration not stated) + NC1CC1c1ccc(-c2cccc(O)c2)cc1
IC50 [1]: 5.71 nM
IC50 [2]: 5.63 nM
IC50 [3]: 5.49 nM
IC50 [4]: 5.37 nM
IC50 [5]: 4.75 nM
viability, T/C (second compound 0.1 µM, first compound 0.000316 µM): 83.1%
viability, T/C (second compound 0.1 µM, first compound 0.001 µM): 91.7%
viability, T/C [6]: 86.8%
viability, T/C [7]: 15.1%
viability, T/C [8]: 0.96%
viability, T/C [9]: 0.46%
viability, T/C (second compound 0.316 µM, first compound 0.000316 µM): 73.4%
viability, T/C (second compound 0.316 µM, first compound 0.001 µM): 90.5%
viability, T/C [10]: 89.2%
viability, T/C [11]: 15.8%
viability, T/C [12]: 0.53%
viability, T/C [13]: 0.18%
viability, T/C (second compound 1 µM, first compound 0.000316 µM): 81.3%
viability, T/C (second compound 1 µM, first compound 0.001 µM): 83.6%
viability, T/C [14]: 87.3%
viability, T/C [15]: 13%
viability, T/C [16]: 0.98%
viability, T/C [17]: 0.23%
viability, T/C (second compound 3.16 µM, first compound 0.000316 µM): 76.3%
viability, T/C (second compound 3.16 µM, first compound 0.001 µM): 86.2%
viability, T/C [18]: 83.8%
viability, T/C [19]: 12.3%
viability, T/C [20]: 0.68%
viability, T/C [21]: 0.23%
viability, T/C (second compound 10 µM, first compound 0.000316 µM): 87.6%
viability, T/C (second compound 10 µM, first compound 0.001 µM): 93.7%
viability, T/C [22]: 72.7%
viability, T/C [23]: 8.29%
viability, T/C [24]: 0.39%
viability, T/C [25]: 0.24%

O=C(C=Cc1cccc(S(=O)(=O)Nc2ccccc2)c1)NO + NC1CCC(NC2CC2c2ccccc2)CC1
IC50 [1]: > 3000 nM
IC50 [2]: > 3000 nM
IC50 [3]: > 3000 nM
IC50 [4]: 294 nM
IC50 [5]: 895 nM
viability, T/C (second compound 0.1 µM, first compound 0.00949 µM): 106%
viability, T/C (second compound 0.1 µM, first compound 0.03 µM): 112%
viability, T/C (second compound 0.1 µM, first compound 0.0949 µM): 88.3%
viability, T/C (second compound 0.1 µM, first compound 0.3 µM): 43.7%
viability, T/C (second compound 0.1 µM, first compound 0.949 µM): 16.5%
viability, T/C (second compound 0.1 µM, first compound 3 µM): 104%
viability, T/C (second compound 0.316 µM, first compound 0.00949 µM): 112%
viability, T/C (second compound 0.316 µM, first compound 0.03 µM): 104%
viability, T/C (second compound 0.316 µM, first compound 0.0949 µM): 90.1%
viability, T/C (second compound 0.316 µM, first compound 0.3 µM): 46.7%
viability, T/C (second compound 0.316 µM, first compound 0.949 µM): 11.5%
viability, T/C (second compound 0.316 µM, first compound 3 µM): 98.8%
viability, T/C (second compound 1 µM, first compound 0.00949 µM): 96.9%
viability, T/C (second compound 1 µM, first compound 0.03 µM): 97.3%
viability, T/C (second compound 1 µM, first compound 0.0949 µM): 81.4%
viability, T/C (second compound 1 µM, first compound 0.3 µM): 53%
viability, T/C (second compound 1 µM, first compound 0.949 µM): 13%
viability, T/C (second compound 1 µM, first compound 3 µM): 88%
viability, T/C (second compound 3.16 µM, first compound 0.00949 µM): 99.4%
viability, T/C (second compound 3.16 µM, first compound 0.03 µM): 102%
viability, T/C (second compound 3.16 µM, first compound 0.0949 µM): 84.6%
viability, T/C (second compound 3.16 µM, first compound 0.3 µM): 50.1%
viability, T/C (second compound 3.16 µM, first compound 0.949 µM): 6.88%
viability, T/C (second compound 3.16 µM, first compound 3 µM): 89.7%
viability, T/C (second compound 10 µM, first compound 0.00949 µM): 99.9%
viability, T/C (second compound 10 µM, first compound 0.03 µM): 97.2%
viability, T/C (second compound 10 µM, first compound 0.0949 µM): 79.5%
viability, T/C (second compound 10 µM, first compound 0.3 µM): 51.5%
viability, T/C (second compound 10 µM, first compound 0.949 µM): 11.2%
viability, T/C (second compound 10 µM, first compound 3 µM): 88%
